{"source": "patent US20250170239A1", "about": "“CELLULAR REPROGRAMMING BY TARGETING THE GOLGI APPARATUS” (MUSC Foundation for Research Development, priority 2023, published 2025)", "key": {"[1]": {"system": "Pmel T cells", "method": "On day 3, the cells were collected for RNA-sequencing analysis (n=3 independent samples). (FIG. 14A) Principle component analysis (PCA) of control versus H2S-treated samples. […] (FIG. 14E) Schematic of experimental design for cytokine and translation assays. (FIG. 14F) Pmel CD8+ T cells were activated for 3 days with gp100 and IL2+/−0.5 mM GYY4137. On day 3, the cells were washed and re-stimulated with gp100 for 4 hours, followed by measurement of cytokine production via FACS. (FIG. 14G) Active protein translation was assessed using Click-iT Plus OPP Alexa Fluor 647 Protein Synthesis Assay Kit (ThermoFisher) (n=3 independent samples) in Pmel T cells after re-stimulation (n=3 independent samples). (FIG. 14H) Levels of EIF2a, phosphorylated 4EBP1, and phosphorylated rS6 evaluated via FACS in Pmel T cells after re-stimulation (n=4 independent samples). (FIG. 14I) Pmel CD8+ T cells were activated for 2 days with gp100 and IL2 followed by transduction with either control lentivirus or CBS-expressing lentivirus. On day 5, the cells were washed and re-stimulated with gp100 for 4 hours. Quantification of protein translation assessed using Click-iT Plus OPP Alexa Fluor 647 Protein Synthesis Assay Kit and quantification intracellular cytokines assessed using FACS (n=3 independent samples). MFI represents mean fluorescence intensity.\nPmel T cells were re-stimulated with gp100 peptide (0.1 μg/mL) and Click-iT™ Plus OPP Alexa Fluor™ 647 Protein Synthesis Assay Kit (ThermoFisher Scientific #C10458) was used to measure protein translation using flow cytometry following the manufacturer's protocol."}, "[2]": {"system": "Pmel CD8+ T cells", "assay": "H2O2-induced oxidative stress and antioxidant capacity in Pmel T cells", "quoted_text": "(FIG. 20A) Cells treated for 12-hours with H2O2 (50 mM). FACS analysis quantifying 7-AAD+AnnexinV+ and 7−AAD−AnnexinV− populations (n=3). FIG. 20B, mRNA levels of GCLM and GCLC. (FIG. 20C) Measurements of surface thiols by AlexaFluor-488 C5 Maleimide (n=3) and intracellular glutathione by ThiolTracker Violet (n=4). […] (FIG. 20E) Fold increase in MFI for phosphorylated-PERK, phosphorylated-IRE1a, and ATF4 after 12-hr. incubation with 50 mM H2O2 (n=3). FIG. 20F, FACS quantification of cells expressing high phosphorylated-PERK levels after exhaustion assay (n=2). (FIG. 20G) Percentage of cells expressing high phosphorylated-PERK in Pmel cells overexpressing Cbs compared to Pmel cells transduced with control lentivirus (n=3). (FIG. 20H) Fold change in GM130 MFI in Pmel cells using exhaustion assay (n=3). (FIG. 20I) Cell viability and mitochondrial ROS following monensin treatment (1 mM). […] (FIG. 20K) GM130 MFI values in Pmel T cells overexpressing Cbs compared to control cells after transfer into tumor-bearing mice and TIL isolation after 7 days (n=4). (FIG. 20L) Pmel T cells cultured with B16-F10 supernatant and gp100, followed by FACS sorting for PD1+TIM3+ and PD1−TIM3− cells. Sorted cells stained with anti-Giantin antibody and analyzed for Golgi area via ImageStream. (FIG. 20M) FACS analysis of GM130 expression in PD1+TIM3+ and PD1−TIM3− populations. (FIG. 20N) Pmel cells treated with 1 mM monensin and analyzed for intracellular ROS (DCFDA). (FIG. 20O) FACS analysis of GM130 expression in Pmel cells treated with 50 mM H2O2 (6-hours). Data represent mean±SEM. Analyzed by two-sided Student's t-test or one-way ANOVA. ns, p-value >0.05; p-value *≤0.05; **≤0.01; ***≤0.001; ****≤0.0001."}, "[3]": {"system": "Pmel T cells", "method": "(FIG. 18C) NAD+ and nicotinamide quantification from metabolomics dataset. (FIG. 18D) SIRT1 deacetylase activity in activated Pmel T cells (means of normalized OD values). (FIGS. 18E and 18F) Pmel T cells were activated with gp100 for 3 days in the presence of vehicle, GYY4137 (0.5 mM), or GYY4137+sirt1 inhibitor EX527 (10 μM). (FIG. 18E) Nuclear and cytoplasmic protein fractions were isolated and western blot analysis was performed to determine relative expression of nuclear and cytoplasmic Foxo1 (n=3). (FIG. 18F) Expression of CD62L and CD44 analyzed by FACS (n=3). (FIG. 18G) Splenocytes from wildtype and Cbs-knockout mice+/−GYY4137 activated with anti-CD3 and anti-CD28 antibodies followed by intranuclear staining for Foxo1. (FIG. 18H) Pmel T cells activated and expanded for metabolic flux analysis. Quantification of oxygen consumption rate (OCR), spare respiratory capacity (SRC), maximal respiration, and basal respiration (n=10 experimental replicates representative of 3 separate experiments). (FIG. 18I) Pmel T cells activated and expanded to day 5 for characterization of mitochondria using FACS, quantified by MFI values for mitoFM Deep Red, TMRM, and mitoSOX dyes (n=4). (FIG. 18J) Representative confocal microscopy images of mitochondria from control or H2S-treated T cells. (FIG. 18K) Human CD19 CAR-T cells expanded for 3 days with IL2+/−0.5 mM GYY4137 and collected for metabolic flux analysis. Shown is the quantification of mean oxygen consumption rate (OCR), spare respiratory capacity (SRC), maximal respiration, and basal respiration.\nAlexa Fluor 488 (anti-Giantin) and Alexa Fluor 647 (anti-TOMM20) fluorescence were imaged in a Zeiss LSM 880 NLO inverted laser scanning confocal microscope (Thornwood, NY) using a 63× 1.4 N.A. plan-apochromat oil immersion lens. Alexa Fluor 488 and Alexa Fluor 647 were excited at 488 nm and 633 nm, respectively. Emitted light was detected with an Airyscan super-resolution detector at BP 495-550 nm for Giantin label and LP 654 nm for TOMM20. Z-stack Airyscan images were processed using the Huygens Professional deconvolution and image analysis software (Scientific Volume Imaging, The Netherland). After images were deconvolved using Huygens' Deconvolution Express (Standard Profile) that determines optimal parameters, 3D surface rendering of deconvolved images with watershed augmentation using Huygens' Surface Renderer was performed.", "remark": "listed apart in the source"}, "[4]": {"system": "Pmel CD8+ T cells", "settings": "3 days gp100 and IL2 +/− 0.5 mM GYY4137", "quoted_text": "Next, the effect of H2S treatment on the transcriptomic profile of anti-tumor T cells was determined. Pmel CD8+ T cells were activated and expanded in the presence or absence of the H2S donor prior to RNA-sequencing.\nCells were immediately pelleted by centrifugation at 4° C. and resuspended in 1 mL Trizol. RNA concentration was measured using a NanoDrop 8000. RNA quality was assessed using an Agilent 4200 TapeStation and RINe values ranged from 9.7-10. […] Dual-indexed libraries were pooled to and sequenced at VANTAGE (Vanderbilt University Medical Center) on an Illumina NovaSeq 6000 (S4 flow cell) to a depth of approximately 25 million paired-end 150 bp reads per library. Reads were aligned to the mouse mm10 reference genome using STAR (v2.7.1a). Only uniquely mapped reads were retained for further analyses. Quality control metrics were assessed by Picard tool (http://broadinstitute.github.io/picard/). Gencode annotation for mm10 (version M25) was used as reference alignment annotation and downstream quantification. Gene level expression was calculated using featureCounts (v2.0.1). Counts were calculated based on protein-coding genes from the annotation file. Counts were normalized using counts per million reads (CPM). Genes with no reads in either Control or Treated samples were removed. […]"}, "[5]": {"system": "Pmel T cells", "assay": "Golgi stress (monensin, H2O2, thapsigargin) in Pmel T cells: GM130, ROS, Golgi dispersion", "format": "cell-based, mouse", "design": "cell death / mitochondrial ROS / monensin-induced cell death and mitochondrial ROS accumulation / ER stress (p-PERK): dose or concentration left out as unconfirmed", "method": "(FIG. 21A) Levels of intracellular glutathione assessed using FACS by employing ThiolTracker Violet dye in control CD19 CAR-T cells or CAR-T cells overexpressing Cbs (CbstdCD19-CAR-T) (n=3). (FIG. 21B) 12 hour Thapsigargin (700 nM) treatment was used to induce ER stress in WT T cells, Cbs-KO T cells, and Cbs-KO T cells+H2S. Levels of phosphorylated PERK were assessed by FACS (n=3). (FIG. 21C) Pmel T cells were treated with either Thapsigargin (700 nM) or Monensin (1 mM) for 12 hours, followed by staining for phosphorylated PERK (p-PERK) and GM130 to assess ER stress and Golgi stress, respectively (n=4). (FIG. 21D) Activated Pmel T cells were treated for 12 hours with either vehicle control or 1 mM Monensin (“+Golgi stress”) before being stained for giantin to assess Golgi dispersion. […] (FIG. 21E) Representative confocal microscopy images of mitochondria (Tom20) and Golgi (giantin) in human PBMCs treated with vehicle control or 0.5 mM GYY4137.\nT cells were stained with conjugated for surface markers as described in the figure legends followed by fixation and permeabilization with BD Cytofix/Cytoperm Kit (BD Biosciences, 554722). The Golgi was labeled using anti-Giantin antibody (Abcam, ab80864) as the primary antibody followed by secondary antibody staining with anti-Rabbit IgG conjugated to Alexa Fluor 488 (ab150077). The cells were then imaged using ImageStreamX mark II imaging flow-cytometer and analyzed using IDEAS 6.2. Spectral overlap was compensated for using single-stain controls. Image analysis for Golgi area was performed using the protocol established by Eisenberg-Lerner et al.44 First, cells were gated on single cells using the area and aspect ratio features, and then gated on focused cells using the Gradient RMS feature. Golgi area was calculated using the anti-Giantin fluorescence signaling, using on the Threshold_50 mask that includes the 50% highest intensity pixels of the Golgi staining, with a mask defined as Area Threshold 50 was considered as the Golgi area to compare between the relevant conditions."}}}
{"molecule": "C1COCCN1.COc1ccc(P(=S)(S)N2CCOCC2)cc1", "note": "(stereo not drawn) [GYY4137]", "values": [{"measurement": "phosphorylation of 4EBP1", "setting": "[1]; FACS after re-stimulation", "value": "increased phosphorylation of 4EBP1"}, {"measurement": "total EIF2α and phosphorylated S6 ribosomal protein", "setting": "[1]; FACS after re-stimulation", "value": "increased total levels of EIF2α and phosphorylated levels of S6 ribosomal protein"}, {"measurement": "overall protein translation (OPP incorporation)", "setting": "[1]; upon re-stimulation with cognate antigen", "value": "significantly enhanced upregulation of overall protein translation"}, {"measurement": "apoptotic cell death (7-AAD, AnnexinV)", "setting": "[2]; 12-hours H2O2 (50 mM), +/− 0.5 mM GYY4137", "value": "significant decrease in apoptotic cell death"}, {"measurement": "expression of GCLC and GCLM (mRNA)", "setting": "[2]; +/− 0.5 mM GYY4137", "value": "increased expression"}, {"measurement": "intracellular glutathione (iGSH)", "setting": "[2]; ThiolTracker Violet", "value": "increase"}, {"measurement": "mitochondrial organization and morphology (confocal)", "setting": "[3]; control vs H2S-treated", "value": "more compact and continuous mitochondria"}, {"measurement": "mitochondrial mass (mitoFM staining)", "setting": "[3]; expanded to day 5", "value": "increased overall mitochondrial mass"}, {"measurement": "mitochondrial membrane potential (TMRM staining)", "setting": "[3]; expanded to day 5", "value": "decreased mitochondrial membrane potential"}, {"measurement": "mitochondrial reactive oxygen species (mitoSOX staining)", "setting": "[3]; expanded to day 5", "value": "decreased mitochondrial reactive oxygen species"}, {"measurement": "significantly upregulated pathways", "setting": "[4]", "value": "pathways related to immune receptor activity, T cell signaling, and cytokine activity"}, {"measurement": "transcriptomic profile (PCA)", "setting": "[4]", "value": "distinct transcriptomic profile"}, {"measurement": "monensin-induced ROS (DCFDA)", "setting": "[5]; 1 mM monensin with H2S treatment", "value": "mitigated"}, {"measurement": "H2O2-mediated changes in Golgi stress (GM130 levels)", "setting": "[5]; 50 mM H2O2 (6-hours)", "value": "mitigated"}, {"measurement": "monensin-induced cell death and mitochondrial ROS accumulation", "setting": "[5]; monensin in presence of H2S", "value": "partially mitigated"}]}
